Assay results published in patent US20240132463A1, “SUBSTITUTED N-(2-(2,6-DIOXOPIPERIDIN-3-YL)-1,3-DIOXOISOINDOLIN-5-YL)ARYLSULFONAMIDE ANALOGS AS MODULATORS OF CEREBLON PROTEIN” (ST. JUDE CHILDREN'S RESEARCH HOSPITAL, INC., priority 2020, published 2024).

Key:
IKZF1 = IKZF1 (Homo sapiens (Human), UniProt Q13422+Q96SW2); experiment: IKZF1 degradation by immunoblot in MV4-11 cells; assay type: cell-based; details: MV4-11 cells
Protocol: MV4-11 cells were seeded in 6-well plates (1×10^6 cells per well). After overnight incubation, the cells were treated with indicated concentrations for specific timepoints. […] After blocking the membrane with LI-COR TBS blocking buffer and incubation in primary antibody overnight, the corresponding protein signals were detected using IRDye secondary antibodies and Odyssey Imaging System. Image Studio Lite Ver 5.2 was used for blot quantification. […] IRDye® 800CW Goat anti-Mouse IgG Secondary Antibody and IRDye® 68ORD Goat anti-Rabbit IgG Secondary Antibody were used as secondary antibodies.

Aqueous solubility assay = assay type: physicochemical; details: aqueous solubility at pH = 7.4, triplicate
Protocol: Solubility assays were carried out on a Biomek FX lab automation workstation (Beckman Coulter, Inc., Fullerton, CA) using μSOL Evolution software (pION Inc., Woburn, MA). 10 μL of 10 mM compound stock (in DMSO) was added to 190 μL 1-propanol to make a reference stock plate. 5 μL from this reference stock plate were mixed with 70 μL 1-propanol and 75 μL citrate phosphate-buffered saline (PBS;isotonic) to make the reference plate, and the UV spectrum (250-500 nm) of the reference plate was read. 6 μL of 10 mM test compound stock was added to 594 μL buffer in a 96-well storage plate and mixed. The storage plate was sealed and incubated at RT for 18 h. The suspension was then filtered through a 96-well filter plate (pION Inc., Woburn, MA). 75 μL of filtrate was mixed with 75 μL 1-propanol to make the sample plate, and the UV spectrum of the sample plate was read. Calculations were carried out with μSOL Evolution software based on the area under the curve (AUC) of the UV spectrum of the sample and reference plates. All compounds were tested in triplicate.

[1] = Liver microsomes stability assay (mouse); assay type: in vitro ADME
Protocol: The liver microsome stability assay was carried as previously described (Refs. 40-41). NADPH regenerating agent solutions A and B and mouse liver microsomes (CD-1) were obtained from BD Gentest (Woburn, MA). Pooled human liver microsomes were purchased from XenoTech (Lenexa, KS). Ninety-six deep well plates were obtained from Midsci (St. Louis, MO). Ninety-six analytical plates were obtained from Corning Incorporated (Acton, MA). Sample preparation for microsomal stability was modified from Di's publications. A set of incubation times of 0, 15, 30, 60, 120, and 240 min were used. DMSO stock solutions of test compounds and verapamil (system control) were prepared at 10 mM concentration. Concentrated human or mouse liver microsomes (20 mg/mL protein concentration) and 0.5 M EDTA were diluted into 0.1 M potassium phosphate buffer (pH 7.4) and mixed well, followed by compounds solutions being spiked. This solution was mixed and 90 μL was transferred to 6 time points plates (each in triplicate wells). For the time 0 h plate, 3 fold (v:v) cold acetonitrile with internal standard (40 ng/ml warfarin) was added to each well, followed by addition of NADPH regenerating agent (mixing NADPH solutions A and B in PBS, pH7.4) and no incubation. […] The metabolic stability was evaluated via the half-life from least-squares fit of the multiple time points based on first-order kinetics.

MDCKII-MDR1 cells = experiment: MDCKII-MDR1 permeability assay; assay type: in vitro ADME; details: permeability in MDCK-MDR1 cells
Protocol: High throughput […]1 permeability was performed in the Transwell® 0.4 μm polycarbonate membrane 96-well system with modified methods (Refs. 38-39). […]1 cells were maintained at 37° C. in a humidified incubator with an atmosphere of 5% CO2. The cells were cultured in 75 cm^2 flasks with Dulbecco's Modified Eagle's Medium (DMEM) containing 10% fetal bovine serum (FBS), 1% non-essential amino acids (NEAA), 100 units/ml of penicillin, and 100 μg/ml of streptomycin. The […]1 cells were seeded onto inserts at a density of 2×10^4 and 1×10^4 cells/insert separately. The medium in the wells was exchanged each other day, and the trans epithelial electrical resistance (TEER) value was measured using an epithelial volt-ohm meter (Millipore, Billerica, Massachusetts). […] For transport experiments, each cultured monolayer on the 96-well plate was washed twice with a transport buffer (HBSS/25 mM HEPES, pH 7.4). The permeability assay was initiated by the addition of each compound solution (10 μmol/L) into inserts (apical side, A) or receivers (basolateral side, B). The MDCKII-MDR1 cell monolayers were incubated for 1 hour at 37° C. Fractions were collected from receivers (if apical to basal permeability) or inserts (if basal to apical permeability), and concentrations were assessed by UPLC/MS (Waters; Milford, MA). All compounds were tested in triplicates. The A→B (or B→A) apparent permeability coefficients (Papp) of each compound were calculated using the equation, Papp=dQ/dt×1/AC0, where dQ/dt equals the flux of a drug across the monolayer, A equals the total insert well surface area, and C0 is the initial concentration of substrate in the donor compartment. The efflux ratio was determined by dividing the Papp in the B-A direction by the Papp in the A-B direction.

MV4-11 cells = experiment: MV-4-11 cell viability assay; assay type: cell-based, human; details: 72 hours, Cell Titer Glo
Protocol: MV-4-11 cell line was purchased from the American Type Culture Collection (ATCC, Manassas, VA). The cells were cultured according to recommendations in IMDM cell culture media (ATCC). Exponentially growing MV-4-11 cells were plated at 1,000 cells per well in Corning 8804BC white 384-well assay plates and incubated overnight at 37° C. in a humidified 5% CO2 incubator. Compounds were transferred to the assay plate from a dose-response plate using a Pintool on a Biomek FXP Laboratory Automation Workstation (Beckman Coulter). Cytotoxicity was determined following 72 hours of incubation using Promega Cell Titer Glo reagent according to the manufacturer's recommendation. Luminescence was measured on an Envision plate reader (Perkin-Elmer).
Compounds were screened in human cancer cell lines and each cell line was cultured in the complete medium recommended by the vendor and seeded in Corning 8804BC white 384-well assay plates at density of 1,000, 1,000, 1,000, 1,500 and 7,500 cells per well, for MV4-11, HD-MB03, MB004, MB002 and MHH-CALL4 cells respectively. After overnight incubation at 37° C. in a humidified 5% CO2 incubator, cells were treated with compounds in dose-response format using a Pintool on a Biomek FXP Laboratory Automation Workstation (Beckman Coulter). […] After 72 h incubation, cell proliferation was assessed using Cell Titer-Glo (CTG) luminescent cell viability assay (Promega) according to the manufacturer's instruction. Luminescence signal was measured using an Envision plate reader (Perkin-Elmer).

O=C1CCC(N2C(=O)c3ccc(NS(=O)(=O)c4ccccc4OC(F)(F)F)cc3C2=O)C(=O)N1 (stereo not shown) [Compound 1, N-(2-(2,6-dioxopiperidin-3-yl)-1,3-dioxoisoindolin-5-yl)-2-(trifluoromethoxy)benzenesulfonamide]
IKZF1 degradation at 4 hours (IKZF1; 4 hours, any concentration tested): did not significantly degrade IKZF1
IKZF1 protein abundance (IKZF1; treatment over 24 hours): dose-dependent decrease
Sol. (Aqueous solubility assay): 67 µM
intrinsic clearance Clint [1]: 12 mL/min/kg
liver microsomes t1/2 [1]: 4.7 h
Papp (MDCKII-MDR1 cells): 2.3 ×10⁻⁶ cm/s
MV4-11 EC50 (MV4-11 cells): among the most potent
